Reference: article PMC9669016, “First-in-human phase Ia study of the PI3Kα inhibitor CYH33 in patients with solid tumors” (Nature Communications, 2022)
Where two headings read alike, the source gives them in different places.

Columns and labels:
[1] = test system: EC074 esophageal cancer PDX; design: method as in Investigator's Brochure (IB) 12; settings: 25 mg/kg oral for 21 days; ref Investigator's Brochure (IB) 12; cited from earlier work
[2] = design: method as in Investigator's Brochure (IB) 12; settings: ref Investigator's Brochure (IB) 12, cited from earlier work; for absolute bioavailability: 1 mg/kg
[3] = design: method as in Investigator's Brochure (IB) 12; settings: dogs, without concentration dependency; ref Investigator's Brochure (IB) 12; cited from earlier work
[4] = design: method as in Investigator's Brochure (IB) 12; settings: ref Investigator's Brochure (IB) 12, cited from earlier work
pregnant rats = test system: pregnant rats; design: method as in Investigator's Brochure (IB) 12; settings: ref Investigator's Brochure (IB) 12; cited from earlier work
Beagle dogs [5] = test system: Beagle dogs; design: method as in Investigator's Brochure (IB) 12; settings: ref Investigator's Brochure (IB) 12; cited from earlier work
PI3Kα and its mutants = test system: PI3Kα and its mutants; design: method as in PMID 33109399; settings: read-out: IC50 range; cited from earlier work
[6] = design: method as in Investigator's Brochure (IB) 12; settings: dogs, ref Investigator's Brochure (IB) 12, cited from earlier work
human hepatocytes = test system: human hepatocytes; design: method as in Investigator's Brochure (IB) 12; settings: ref Investigator's Brochure (IB) 12; cited from earlier work
CYP2C19 = test system: CYP2C19; design: method as in Investigator's Brochure (IB) 12; settings: up to 100 µM; ref Investigator's Brochure (IB) 12; cited from earlier work
CYP2B6 = test system: CYP2B6; design: method as in Investigator's Brochure (IB) 12; settings: up to 100 µM; ref Investigator's Brochure (IB) 12; cited from earlier work
Beagle dogs [7] = test system: Beagle dogs; design: method as in Investigator's Brochure (IB) 12; settings: long-term, ref Investigator's Brochure (IB) 12; cited from earlier work
[8] = test system: fasting blood glucose (FBG); assay: Pharmacodynamics: fasting blood glucose (FBG) change from baseline; type: in vivo, human; settings: Cycle 1 Day 15 (C1D15), starting at 10 mg CYH33 and peaking at 60 mg
Excerpt: Since glucose metabolism is tightly regulated by PI3Kα[24], fasting blood glucose (FBG) levels were used as a PD marker.
This is a phase I clinical study (ClinicalTrials.gov identifier: NCT03544905), including a phase Ia study of oral CYH33 monotherapy in patients with advanced solid tumors, and a phase Ib study of oral CYH33 monotherapy focused on several specific tumors. Here we report the results of the phase Ia study conducted at Sun Yat-sen University Cancer Center. The phase Ia study included dose-escalation stage and dose-expansion stage. […]
Blood samples for PK evaluation were collected at: (1) during the single dose phase: on day 1 pre-dose and 0.5, 1, 2, 4, 8, 12, 24, 36, 48, and 72 h post-dose; (2) during the continuous dose phase: C1D1/Cycle 1 Day 28 pre-dose, and 0.5, 1, 2, 3, 4, 6, 8, 12, and 24 h post-dose; and C1D8/Day 15 pre-dose. Plasma concentrations of CYH33 and I27 were analyzed using a liquid chromatography-tandem mass spectrometry (LC/MS/MS) assay (Shimadzu Corporation, LC-30AD) with a lower limit of quantification (LLOQ) of 2.585 ng/mL and 1.0 ng/mL for CYH33 and I27, respectively. […]

[9] = test system: EC104 esophageal cancer PDX; design: method as in Investigator's Brochure (IB) 12; settings: 12.5 mg/kg oral for 21 days; ref Investigator's Brochure (IB) 12; cited from earlier work
CYP2D6 = test system: CYP2D6; design: method as in Investigator's Brochure (IB) 12; settings: up to 100 µM; ref Investigator's Brochure (IB) 12; cited from earlier work
[10] = test system: KYSE410 human esophageal cancer xenograft; design: method as in Investigator's Brochure (IB) 12; settings: ref Investigator's Brochure (IB) 12, cited from earlier work; for inhibition rate (tumor growth): multiple doses
SD rats = test system: SD rats; design: method as in Investigator's Brochure (IB) 12; settings: ref Investigator's Brochure (IB) 12; cited from earlier work
[11] = test system: EC063 esophageal cancer PDX; design: method as in Investigator's Brochure (IB) 12; settings: 12.5 mg/kg oral for 21 days; ref Investigator's Brochure (IB) 12; cited from earlier work

## COC(=O)Nc1cc(C(F)(F)F)c(-c2nc(N3CCOCC3)c3cc(CN4CCN(S(C)(=O)=O)CC4)cn3n2)cn1 [CYH33, methyl (5-(6-((4-(methylsulfonyl)piperazin-1-yl)methyl)−4-morpholinopyrrolo[2,1-f][1,2,4]triazin-2-yl)−4-(trifluoromethyl)pyridin-2-yl)carbamate]
[1]
  T/C ratio: 36.78%
[2]; female rats
  absolute bioavailability: 53.7%
  plasma clearance CL: 34.0 mL/min/kg
  t1/2: 6.7 h
[2]; intragastric administration
  exposure AUC0-t in female rats relative to male rats: more than 12 times
[2]; male rats
  absolute bioavailability: 19.0%
  plasma clearance CL: 4.83 mL/min/kg
  t1/2: 1.3 to 4.5 h
[2]; rats
  Vss, steady-state volume of distribution: 1.96 L/kg
  accumulation after continuous administration for 7 days: not significant
[3]
  plasma protein binding (PPB): 97.1%
[4]; liver, adrenal gland, digestive tract, pancreas, kidney, spleen, ovaries
  exposure in tissues relative to plasma: more than 4 times
[4]
  concentration of parent drug at 72 h after administration relative to peak concentration: 0.5%
  distribution into the red blood cells: basically not distributed
  exposure in brain tissue relative to plasma: approximately 20%
  exposure in tissues, female rats relative to male rats (higher): 7 - 18 fold
Pregnant rats
  no-observed-adverse-effect level (NOAEL) for embryo-fetal development: 0.10 mg/kg
Beagle dogs [5]
  maximum tolerated dose (MTD), acute toxicity: > 120 mg/kg
PI3Kα and its mutants
  IC50: 5 to 20 nM
[6]; 0.05 mg/kg
  absolute bioavailability: 70.9%
[6]
  Vss, steady-state volume of distribution: 1.86 L/kg
  accumulation after continuous administration for 7 days: not significant
  elimination half-life: 5.1 h
  plasma clearance CL: 6.75 mL/min/kg
Human hepatocytes
  oxidative metabolites in human hepatocytes: not detected
CYP2C19
  inhibition of CYP2C19: did not inhibit
CYP2B6
  inhibition of CYP2B6: did not inhibit
Beagle dogs [7]
  highest non-severely toxic dose (HNSTD): 0.2 mg/kg
[8]
  FBG levels: dose-dependent increase in FBG levels
[9]
  T/C ratio: approximately 30%
CYP2D6
  inhibition of CYP2D6: did not inhibit
[10]; 12.5 mg/kg oral for 21 days
  T/C ratio: approximately 30%
[10]; 12.5 mg/kg
  inhibition rate (tumor growth): > 67%
[10]; 25 mg/kg
  inhibition rate (tumor growth): > 90%
[10]; 50 mg/kg
  inhibition rate (tumor growth): > 95%
SD rats
  MTD, acute toxicity: ≥ 600 mg/kg
[11]
  T/C ratio: approximately 30%
